Assay results: the CombiSolv-Exp solvation set (Vermeire and Green 2021)
Values belong to the compound of their own block, whether it stands above or below them.

Test: solvent given as SMILES

SMILES: Nc1ccc(S(=O)(=O)Nc2ccnn2-c2ccccc2)cc1
solvation free energy, 298 K (in O): -21.2 kcal/mol

SMILES: N#Cc1ccc(O)cc1
solvation free energy, 298 K (in O): -10.2 kcal/mol

SMILES: O=C(O)c1cccnc1Nc1cccc(C(F)(F)F)c1
solvation free energy, 298 K (in C1COCCO1): -17.9 kcal/mol | solvation free energy, 298 K (in CC(C)=O): -17.7 kcal/mol | solvation free energy, 298 K (in CCCCCCCCO): -17.1 kcal/mol | solvation free energy, 298 K (in CCOC(C)=O): -17.3 kcal/mol | solvation free energy, 298 K (in CCOCC): -16.5 kcal/mol | solvation free energy, 298 K (in CN(C)C=O): -19.1 kcal/mol | solvation free energy, 298 K (in Clc1ccccc1): -15.5 kcal/mol | solvation free energy, 298 K (in NC=O): -16.1 kcal/mol | solvation free energy, 298 K (in O): -12.8 kcal/mol

SMILES: C=C1C2CCC(C2)C1(C)C (stereo not given)
solvation free energy, 298 K (in O): 0.61 kcal/mol

SMILES: C=C(C)C1CC=C(C)C(O)C1 (stereo not given)
solvation free energy, 298 K (in O): -4.44 kcal/mol

SMILES: O=C1CCCCC1
solvation free energy, 298 K (in CCCCCC): -4.98 kcal/mol | solvation free energy, 298 K (in CCCCCCC): -5.18 kcal/mol | solvation free energy, 298 K (in CCCCCCCCCCCCCCCC): -4.97 kcal/mol | solvation free energy, 298 K (in ClC(Cl)(Cl)Cl): -6.23 kcal/mol | solvation free energy, 298 K (in ClCCCl): -6.78 kcal/mol | solvation free energy, 298 K (in O): -4.91 kcal/mol

SMILES: CN(C)N=O
solvation free energy, 298 K (in CC(C)CC(C)(C)C): -3.83 kcal/mol | solvation free energy, 298 K (in O): -6.02 kcal/mol

SMILES: CCCCN(CCCC)N=O
solvation free energy, 298 K (in CC(C)CC(C)(C)C): -7.84 kcal/mol | solvation free energy, 298 K (in O): -4.91 kcal/mol

SMILES: CC(C)CCCCCOC(=O)c1ccccc1C(=O)OCCCCCC(C)C
solvation free energy, 298 K (in O): -6.43 kcal/mol

SMILES: Cc1ccccc1C(=O)N(O)c1ccccc1C
solvation free energy, 298 K (in O): -11.2 kcal/mol

SMILES: II
solvation free energy, 298 K (in Brc1ccccc1): -6.1 kcal/mol | solvation free energy, 298 K (in CC(C)CC(C)(C)C): -4.5 kcal/mol | solvation free energy, 298 K (in CCCCCC): -4.67 kcal/mol | solvation free energy, 298 K (in CCCCCCC): -4.66 kcal/mol | solvation free energy, 298 K (in CCCCCl): -5.63 kcal/mol | solvation free energy, 298 K (in CCO): -6.27 kcal/mol | solvation free energy, 298 K (in Cc1ccc(C)cc1): -6.21 kcal/mol | solvation free energy, 298 K (in Cc1cccc(C)c1): -6.25 kcal/mol | solvation free energy, 298 K (in Cc1ccccc1C): -6.23 kcal/mol | solvation free energy, 298 K (in ClC(Cl)(Cl)Cl): -5.25 kcal/mol | solvation free energy, 298 K (in ClC(Cl)Cl): -5.73 kcal/mol | solvation free energy, 298 K (in ClCCCl): -5.72 kcal/mol | solvation free energy, 298 K (in ClCCl): -5.62 kcal/mol | solvation free energy, 298 K (in Clc1ccccc1): -5.81 kcal/mol | solvation free energy, 298 K (in O): -2.54 kcal/mol

SMILES: Brc1c(Br)c(Br)c(Br)c(Br)c1Br
solvation free energy, 298 K (in CCCCCCCCC=CCCCCCCCC(=O)OCC(COC(=O)CCCCCCCC=CCCCCCCCC)OC(=O)CCCCCCCC=CCCCCCCCC): -12.7 kcal/mol | solvation free energy, 298 K (in O): -3.08 kcal/mol

SMILES: Clc1ccc(C(c2ccc(Cl)cc2)C(Cl)Cl)cc1
solvation free energy, 298 K (in CCCCCCCCO): -13.7 kcal/mol | solvation free energy, 298 K (in O): -4.88 kcal/mol

SMILES: C=C1C2CCC3C2C(C)(C)CCCC13C (stereo not given)
solvation free energy, 298 K (in O): 0.8 kcal/mol

SMILES: O=C(Oc1ccccc1)c1ccccc1O
solvation free energy, 298 K (in CC(C)CO): -12.2 kcal/mol | solvation free energy, 298 K (in CC(C)O): -12.2 kcal/mol | solvation free energy, 298 K (in CCC(C)O): -12.5 kcal/mol | solvation free energy, 298 K (in CCCCO): -12.4 kcal/mol | solvation free energy, 298 K (in CCCO): -12.4 kcal/mol | solvation free energy, 298 K (in CCO): -12.4 kcal/mol | solvation free energy, 298 K (in CO): -12.5 kcal/mol

SMILES: Cc1ccccc1C(=O)O
solvation free energy, 298 K (in C1CCOC1): -9.3 kcal/mol | solvation free energy, 298 K (in C1COCCO1): -9.26 kcal/mol | solvation free energy, 298 K (in CC(C)(C)O): -9.12 kcal/mol | solvation free energy, 298 K (in CC(C)CCO): -8.95 kcal/mol | solvation free energy, 298 K (in CC(C)CO): -8.82 kcal/mol | solvation free energy, 298 K (in CC(C)O): -9.06 kcal/mol | solvation free energy, 298 K (in CC(C)OC(C)C): -8.56 kcal/mol | solvation free energy, 298 K (in CCC(C)O): -9.01 kcal/mol | solvation free energy, 298 K (in CCCC(C)O): -8.98 kcal/mol | solvation free energy, 298 K (in CCCCCCCCCCO): -8.7 kcal/mol | solvation free energy, 298 K (in CCCCCCCCO): -8.76 kcal/mol | solvation free energy, 298 K (in CCCCCCCO): -8.81 kcal/mol | solvation free energy, 298 K (in CCCCCCO): -8.86 kcal/mol | solvation free energy, 298 K (in CCCCCO): -8.91 kcal/mol | solvation free energy, 298 K (in CCCCCOC(C)=O): -8.7 kcal/mol | solvation free energy, 298 K (in CCCCO): -8.96 kcal/mol | solvation free energy, 298 K (in CCCCOC(C)=O): -8.76 kcal/mol | solvation free energy, 298 K (in CCCO): -9.01 kcal/mol | solvation free energy, 298 K (in CCO): -9.12 kcal/mol | solvation free energy, 298 K (in CCOC(C)=O): -8.91 kcal/mol | solvation free energy, 298 K (in CCOCC): -8.95 kcal/mol | solvation free energy, 298 K (in COC(C)=O): -8.92 kcal/mol | solvation free energy, 298 K (in O): -5.87 kcal/mol

SMILES: CCCN(CCC)c1c([N+](=O)[O-])cc(S(C)(=O)=O)cc1[N+](=O)[O-]
solvation free energy, 298 K (in O): -7.98 kcal/mol

Further lines, results first:

solvation free energy, 298 K (in O): -2.34 kcal/mol
SMILES: CCCCCCCCC(C)=O

solvation free energy, 298 K (in CCCCCCCCCCCCCCCC): -5.82 kcal/mol | solvation free energy, 298 K (in CCCCCCCCO): -7.26 kcal/mol | solvation free energy, 298 K (in NC=O): -4.31 kcal/mol | solvation free energy, 298 K (in O): -2.29 kcal/mol
SMILES: CCCCCCCC=O

solvation free energy, 298 K (in O): -3.82 kcal/mol
SMILES: C=C(C)C1CC=C(C)C(OC=O)C1 (stereo not given)

solvation free energy, 298 K (in O): -9.89 kcal/mol
SMILES: CCNc1nc(NC(C)CC)nc(OC)n1 (stereo not given)

solvation free energy, 298 K (in O): -15.1 kcal/mol
SMILES: COc1ccc2c(c1)c(CC(=O)O)c(C)n2C(=O)c1ccc(Cl)cc1

solvation free energy, 298 K (in C=CCCCCCCCCCCCCCC): -6.96 kcal/mol | solvation free energy, 298 K (in CCCCCCCCO): -10.2 kcal/mol | solvation free energy, 298 K (in O): -7.35 kcal/mol
SMILES: Cc1ccc(C(=O)O)cc1

solvation free energy, 298 K (in C1CCOC1): -5.45 kcal/mol | solvation free energy, 298 K (in COC(C)=O): -5.46 kcal/mol | solvation free energy, 298 K (in O): -6.77 kcal/mol
SMILES: COCCO
